Reference: paper PMC9150102 (Journal of Medicinal Chemistry, 2022)

How the values were obtained:
SERCA2a [1] = target: T1, SERCA2a (Rattus norvegicus, UniProt P11507); test: SERCA2a ATPase activity in cardiac homogenates from diabetic (STZ) rats; assay type: biochemical
T1 construct: tissues from healthy and STZ rats were homogenized; from tissue; host or cells: Sprague Dawley rat left ventricle homogenates (healthy or STZ-diabetic)
Procedure: Measurements were performed in cardiac SR microsomes (guinea pig) and in whole tissue homogenates (rat). Cardiac preparations included SERCA2a and PLN. To test for PLN involvement in the effect of compounds, SERCA1 activity was measured in PLN-free microsomes (from guinea pig skeletal muscle) before and after reconstitution with the synthetic PLN1–32 inhibitory fragment at a ratio of 300:1 for PLN/SERCA. […] Either an increase in Vmax (rat) or a decrease in KdCa (increased Ca^2+ affinity) (guinea pig) stands for enhancement of SERCA function.
(rats). As verified by Western blot, cardiac microsomes preparations included SERCA2a and PLN and skeletal muscle ones included SERCA1 only.
SERCA stimulation4, compounds were also tested on SERCA1 in microsomes of guinea-pig skeletal muscle (PLN-free) before and after reconstitution with the PLN1-32 inhibitory fragment at a ratio of 300:1 […]
(§1) Left ventricles (LV) were dissected from rat and guinea -pig of healthy and failing preparations and frozen until use. Tissues were homogenized, subjected to centrifugation to obtain SR -enriched microsomes and sarcomeric proteins were extracted, as previously described 4.
(§2) In the case of guinea-pig hearts, LV tissues were homogenized in 4 volumes of 10 mM NaHCO3, 1 mM PMSF, 10 μg/ml aprotinin and leupeptin (pH 7) and centrifuged at 12,000g for 15 minutes. Supernatants were filtered and centrifuged at 100,000 g for 30 min. Contractile proteins were extracted by suspending the pellets with 0.6 M KCl, 30 mM histidine, pH 7 and further centrifugation at 100,000 g for 30 min.
(§3) Final pellets were reconstituted with 0.3 M sucrose, 30 mM histidine, pH 7, to obtain SR-enriched […]
(§4) In the case of rat hearts, cardiac homogenates were used to have sufficient material to replicate the experiments within a single animal. Hearts were excised from rats eight weeks after STZ injection. LV tissues from healthy and STZ rats were homogenized (1 g in 4 ml buffer) in a medium containing 300 mM sucrose, 50 mM K-phosphate, 10 mM NaF, 0.3 mM PMSF, 0.5 mM DTT, pH 7, and centrifuged at 35,000 g for 30 min. The final pellet was resuspended in the same buffer.
SERCA2a ATPase activity was measured as the rate of 32P-ATP release at multiple Ca2+ concentrations (100-2000 nM) in the absence and presence of tested compounds, as previously described5. Increasing concentrations of each compound were pre-incubated with 2 μg of cardiac preparations for 5 min at 4° C in 80 μl of a solution containing 100 mM KCl, 5 mM MgCl2, 1 μM A23187, 20 mM Tris, pH 7.5. Then, 20 μl of 5 mM Tris-ATP containing 50 nCi of 32P-ATP (3-10 Ci/mmol, Perkin Elmer) were added. […] 32P was separated by centrifugation with activated charcoal (Norit A, Serva) and the radioactivity was measured. […]

[2] = tested on: SR Ca^2+ uptake in STZ cardiomyocytes; test: SR loading protocol (SR Ca2+ uptake under NCX inhibition) in patch-clamped STZ myocytes; assay type: cell-based, rat; conditions: 1 μM
[3] = Acute toxicity (LD50) in mice; conditions: male, Albino Swiss CD-1, mouse, in vivo
Procedure: Acute toxicity (LD50) was preliminarily evaluated in mice following i.v. and oral drug administration.
Control animals received the vehicle only.
Drug toxicity studies in mice
Acute toxicity was determined in CD1 mice. Separate mice groups were either orally treated, or
intravenously injected, with increasing doses of the tested substance to identify the dose causing 50%
mortality (LD50). Acute mortality was assessed at 30 min after compound administration; survival was

[4] = tested on: Na^+/K^+ ATPase current (INaK); test: Na+/K+ ATPase current (INaK) in isolated rat LV myocytes; assay type: cell-based; conditions: isolated rat cardiomyocytes
SERCA2a [5] = target: T1, SERCA2a; test: SERCA2a ATPase activity in cardiac SR homogenates from healthy rats; assay type: biochemical
Procedure: (§5) Measurements were performed in cardiac SR microsomes (guinea pig) and in whole tissue homogenates (rat). Cardiac preparations included SERCA2a and PLN. To test for PLN involvement in the effect of compounds, SERCA1 activity was measured in PLN-free microsomes (from guinea pig skeletal muscle) before and after reconstitution with the synthetic PLN1–32 inhibitory fragment at a ratio of 300:1 for PLN/SERCA. […] Either an increase in Vmax (rat) or a decrease in KdCa (increased Ca^2+ affinity) (guinea pig) stands for enhancement of SERCA function. […]
Left ventricles (LV) were dissected from rat and guinea -pig of healthy and failing preparations and frozen until use. Tissues were homogenized, subjected to centrifugation to obtain SR -enriched microsomes and sarcomeric proteins were extracted, as previously described 4. […]
as §4
(§6) SERCA2a ATPase activity was measured as the rate of 32P-ATP release at multiple Ca2+ concentrations (100-2000 nM) in the absence and presence of tested compounds, as previously described5. Increasing concentrations of each compound were pre-incubated with 2 μg of cardiac preparations for 5 min at 4° C in 80 μl of a solution containing 100 mM KCl, 5 mM MgCl2, 1 μM A23187, 20 mM Tris, pH 7.5. Then, 20 μl of 5 mM Tris-ATP containing 50 nCi of 32P-ATP (3-10 Ci/mmol, Perkin Elmer) were added. The ATP hydrolysis was continued for 15 min at 37°C and the reaction was stopped by acidification with 100 μl of 20% ice-cold perchloric acid. 32P was separated by centrifugation with activated charcoal (Norit A, Serva) and the radioactivity was measured. SERCA2a-dependent ATPase activity was identified as the portion of total hydrolytic activity inhibited by cyclopiazonic acid (CPA, 10 µM). Technical replicates were used to ensure the reliability of single values. […]

SERCA2a [6] = target: T2, SERCA2a (Cavia porcellus, UniProt A0A286XFU8); test: SERCA2a ATPase activity, Ca2+ dependency in cardiac SR microsomes from healthy guinea pigs; assay type: biochemical, guinea pig; conditions: for SERCA2a KdCa reduced by / SERCA2a Vmax: 1 nM
T2 construct: from tissue; host or cells: guinea pig left ventricle, SR-enriched microsomes
T2 sequence (A0A286XFU8 entry or part of it): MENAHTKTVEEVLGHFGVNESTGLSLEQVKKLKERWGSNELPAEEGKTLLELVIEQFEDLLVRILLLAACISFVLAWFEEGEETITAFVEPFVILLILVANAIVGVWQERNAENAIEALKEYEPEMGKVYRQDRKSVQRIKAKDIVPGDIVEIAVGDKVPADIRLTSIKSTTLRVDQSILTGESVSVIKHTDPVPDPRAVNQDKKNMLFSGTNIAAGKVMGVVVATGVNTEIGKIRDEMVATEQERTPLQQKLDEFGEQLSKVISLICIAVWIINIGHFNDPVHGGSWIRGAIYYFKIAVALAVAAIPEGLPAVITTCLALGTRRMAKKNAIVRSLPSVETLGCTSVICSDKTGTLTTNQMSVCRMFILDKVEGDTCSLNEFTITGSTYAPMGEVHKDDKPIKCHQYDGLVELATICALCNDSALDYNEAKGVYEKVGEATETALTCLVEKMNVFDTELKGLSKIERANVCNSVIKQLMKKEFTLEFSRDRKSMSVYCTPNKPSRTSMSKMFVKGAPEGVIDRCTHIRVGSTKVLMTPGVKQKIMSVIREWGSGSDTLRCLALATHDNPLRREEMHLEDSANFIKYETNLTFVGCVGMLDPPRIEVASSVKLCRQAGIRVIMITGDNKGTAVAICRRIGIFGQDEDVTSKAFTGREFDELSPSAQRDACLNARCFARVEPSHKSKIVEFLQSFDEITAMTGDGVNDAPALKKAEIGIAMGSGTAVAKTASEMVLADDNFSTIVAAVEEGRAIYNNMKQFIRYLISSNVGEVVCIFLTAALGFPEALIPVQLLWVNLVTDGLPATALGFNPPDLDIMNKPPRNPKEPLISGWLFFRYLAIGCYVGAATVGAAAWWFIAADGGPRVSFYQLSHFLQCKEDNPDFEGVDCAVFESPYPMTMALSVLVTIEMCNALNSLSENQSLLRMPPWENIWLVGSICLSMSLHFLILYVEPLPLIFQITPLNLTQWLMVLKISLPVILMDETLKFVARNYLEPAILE
Procedure: SERCA2a ATPase activity was assessed in SR preparations from healthy guinea pig hearts. Ca^2+ dependency of ATPase activity was measured, and kinetic parameters (KdCa and Vmax) were estimated at compound concentrations of 10 and 100 nM.
[…] […] Data are the mean ± SEM. *p < 0.05 (one-way RM ANOVA plus post hoc Tukey’s multiple comparisons or paired t-test).
as §5, §1, §2, §3, §6

T1 sequence (P11507 1-997 isoform P11507-2): as the sequence (A0A286XFU8 entry or part of it) above, with V219A, M392I, H396Q, I402V, V470A, L535P, A713S, V889I counted along it

## C[C@]12CC[C@H](CCCC(=O)O)C[C@@H]1[C@@H](O)C[C@@H]1[C@@H]2CC[C@]2(C)C(=O)CC[C@@H]12 [Compound 5]
SERCA2a [1]; 300 nM
  SERCA2a Vmax increase: +26%
SERCA2a [1]; 500 nM
  SERCA2a Vmax increase: +25%
[2]
  Ca2+ transient (CaT) decay time constant: sharply accelerated Ca^2+ transient (CaT) decay
  CaT amplitude: not significantly affected
  excitation release (ER) gain: increased excitation release (ER) gain
[3]; iv
  LD50 at 24 h: 300 mg/kg
[3]; po
  LD50 at 24 h: > 800 mg/kg
[4]
  concentration above which INaK inhibition is detectable: higher than 20 μM
SERCA2a [5]; Cpd 100 nM
  SERCA2a KdCa: 221 ± 24 nM
  SERCA2a Vmax (µmol/min/mg): 0,371 ± 0,021 µmol/min/mg
SERCA2a [5]; Cpd 300 nM
  SERCA2a KdCa: 221 ± 21 nM
  SERCA2a Vmax (µmol/min/mg): 0,384 ± 0,023 µmol/min/mg
SERCA2a [5]; Cpd 500 nM
  SERCA2a KdCa: 220 ± 24 nM
  SERCA2a Vmax (µmol/min/mg): 0,374 ± 0,031 µmol/min/mg
SERCA2a [5]; Cpd 1000 nM
  SERCA2a KdCa: 219 ± 32 nM
  SERCA2a Vmax (µmol/min/mg): 0,377 ± 0,029 µmol/min/mg
SERCA2a [6]
  SERCA2a KdCa reduced by: 16%
  SERCA2a Vmax: without affecting Vmax
SERCA2a [6]; 100 nM
  SERCA2a Stimulation @100 nM (DELTA% KdCa): -21%

## C[C@]12CC[C@H](CC(=O)O)C[C@@H]1[C@@H](O)C[C@@H]1[C@@H]2CC[C@]2(C)C(=O)CC[C@@H]12 [Compound 8]
SERCA2a [1]; 300 nM
  SERCA2a Vmax increase: +17%
SERCA2a [1]; 500 nM
  SERCA2a Vmax increase: +28%
SERCA2a [5]; Cpd 100 nM
  SERCA2a KdCa: 214 ± 17 nM
  SERCA2a Vmax (µmol/min/mg): 0,344 ± 0,038 µmol/min/mg
SERCA2a [5]; Cpd 300 nM
  SERCA2a KdCa: 210 ± 13 nM
  SERCA2a Vmax (µmol/min/mg): 0,366 ± 0,027 µmol/min/mg
SERCA2a [5]; Cpd 500 nM
  SERCA2a KdCa: 260 ± 35 nM
  SERCA2a Vmax (µmol/min/mg): 0,313 ± 0,028 µmol/min/mg
SERCA2a [5]; Cpd 1000 nM
  SERCA2a KdCa: 273 ± 32 nM
  SERCA2a Vmax (µmol/min/mg): 0,320 ± 0,020 µmol/min/mg
SERCA2a [6]
  SERCA2a KdCa reduced by: 14%
  SERCA2a Vmax: without affecting Vmax
